Measured values as given in patent publication US10815210B2, “Benzocyclobutane derivatives useful as dual SGLT1 / SGLT2 modulators” (Janssen Pharmaceutica NV, priority 2016, dated 2020).

What was measured:
human SGLT1 = biological target: T1, human SGLT1 (Homo sapiens, UniProt P13866); assay: SGLT1 assay: Na-dependent 14C-AMG uptake in CHO-K1 cells stably expressing human SGLT1; type: cell-based; conditions: for IC50: 500 μM AMG, 2 hours at 37° C.
T1 construct: expressed in transfected cells; host or cells: CHO-K1
T1 sequence (P13866 1-664): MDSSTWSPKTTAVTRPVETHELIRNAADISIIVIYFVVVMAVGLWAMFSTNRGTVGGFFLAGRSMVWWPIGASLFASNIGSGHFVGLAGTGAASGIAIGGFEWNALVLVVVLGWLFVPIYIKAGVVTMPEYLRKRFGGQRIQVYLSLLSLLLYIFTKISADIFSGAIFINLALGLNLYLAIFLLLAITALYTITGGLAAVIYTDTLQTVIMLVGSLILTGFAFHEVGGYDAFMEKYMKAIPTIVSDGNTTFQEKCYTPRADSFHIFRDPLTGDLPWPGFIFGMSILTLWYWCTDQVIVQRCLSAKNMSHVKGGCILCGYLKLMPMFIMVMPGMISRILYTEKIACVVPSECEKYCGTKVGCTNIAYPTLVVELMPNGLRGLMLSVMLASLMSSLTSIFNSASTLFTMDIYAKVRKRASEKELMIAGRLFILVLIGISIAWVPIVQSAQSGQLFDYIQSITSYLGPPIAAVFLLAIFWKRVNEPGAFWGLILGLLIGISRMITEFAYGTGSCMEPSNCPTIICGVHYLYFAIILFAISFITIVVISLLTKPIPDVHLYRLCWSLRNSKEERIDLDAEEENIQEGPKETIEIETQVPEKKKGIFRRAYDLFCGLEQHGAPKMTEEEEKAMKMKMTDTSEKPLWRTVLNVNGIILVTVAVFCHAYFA
Method: (§1) SGLT1 and SGLT2 were cloned in form of cDNA from human small intestine (Genbank M24847), and from human kidney (Genbank M95549), respectively. Subsequently, each full cDNA was subcloned into pcDNA with each construct's integrity verified through follow-on sequencing. To generate CHO-K1 cells that stably express human SGLT1 or human SGLT2, CHO-K1 cells were transfected using DMRIE-C reagent (Life Technologies, Gaithersburg, Md.). Transfected cells were then selected in the presence of 500 μg/ml of the Geneticin (G418 Cellgro Catalog No. 30234-CI)
(§2) Individual clones were then characterized using the following cell-based assay for sodium-dependent glucose transport:
(§3) Inhibition of SGLT1 and SGLT2 activity was assessed in CHO K1 cells stably expressing either human SGLT1 or SGLT2, using the SGLT specific glucose analog methyl-glucopyranoside (Sigma Catalog No. M-9376). Cells were plated (45,000 cells/well) in white wall 96-well plates (COSTAR, Cat#3903) for 24 hours in growth medium, then a final concentration of 10 mM Na-Butyrate (ALDRICH Cat#30341-0) was added. The cells were incubated for 24 hours. On the day of the assay, cells were rinsed and treated with test compounds (at concentrations of 0.001 μM to 10 μM) in assay buffer (50 mM HEPES, 20 mM Tris base, 5 mM KCl, 1 mM MgCl2, 1 mM CaCl2 and 137 mM NaCl, pH 7.4) for 10 minutes. Cells were then incubated with ^14C-a-methyl-d-glucopyranoside (AMG, Amersham Catalog No. CFB 76), using 0.07 μCi per well in 500 μM AMG final concentration. The cells were incubated for 2 hours at 37° C. with 5% CO2 and washed two times with ice-cold Phosphate Buffer Solution (Cellgro Catalog No. 21030-CV). The cells were then solubilized by adding 60 μl of MICROSCINT™20 and the Na-dependent ^14C-AMG uptake was quantified by measuring radioactivity. Plates were counted in a TopCount (Packard, Meriden, Conn.)

human SGLT2 = biological target: T2, human SGLT2 (Homo sapiens, UniProt P31639); assay: SGLT2 assay: Na-dependent 14C-AMG uptake in CHO-K1 cells stably expressing human SGLT2; type: cell-based; conditions: for IC50: 500 μM AMG, 2 hours at 37° C.
T2 construct: expressed in transfected cells; host or cells: CHO-K1
T2 sequence (P31639 1-672): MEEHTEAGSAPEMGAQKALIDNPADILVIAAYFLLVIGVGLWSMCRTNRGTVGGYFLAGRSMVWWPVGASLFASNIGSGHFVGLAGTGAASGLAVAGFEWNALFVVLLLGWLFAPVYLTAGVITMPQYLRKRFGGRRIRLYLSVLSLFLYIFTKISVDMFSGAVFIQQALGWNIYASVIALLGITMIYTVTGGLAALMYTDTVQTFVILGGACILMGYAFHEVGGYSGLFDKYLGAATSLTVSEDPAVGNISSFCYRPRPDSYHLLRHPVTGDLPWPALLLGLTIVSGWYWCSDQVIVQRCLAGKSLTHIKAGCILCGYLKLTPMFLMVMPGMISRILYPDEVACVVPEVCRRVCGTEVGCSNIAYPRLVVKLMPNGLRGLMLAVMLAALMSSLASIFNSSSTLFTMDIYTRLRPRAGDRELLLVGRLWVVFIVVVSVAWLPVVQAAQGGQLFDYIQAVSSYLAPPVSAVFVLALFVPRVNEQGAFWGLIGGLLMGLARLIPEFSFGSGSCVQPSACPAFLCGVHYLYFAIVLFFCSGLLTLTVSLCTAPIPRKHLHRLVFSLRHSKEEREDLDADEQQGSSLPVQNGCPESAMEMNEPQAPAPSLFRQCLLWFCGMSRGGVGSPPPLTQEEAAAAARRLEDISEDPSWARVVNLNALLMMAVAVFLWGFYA
Method: as §1, §2, §3

Row | inhibition at 0.3 µM (human SGLT1) | inhibition at 0.03 µM (human SGLT2) | IC50 (human SGLT1) | IC50 (human SGLT2) | Structure (SMILES)
1 | 24% | 77% | – | – | COc1cc(F)c(Cc2ccc3c(c2)CC3)cc1[C@@H]1O[C@H](CO)[C@@H](O)[C@H](O)[C@H]1O [Compound 20, (2S,3R,4R,5S,6R)-2-(5-((1,2-dihydrocyclobutabenzen-4-yl)methyl)-4-fluoro-2-methoxyphenyl)-6-(hydroxymethyl)-tetrahydro-2H-pyran-3,4,5-triol]
2 | 67% | 35% | – | – | CN(C)c1ccc([C@@H]2O[C@H](CO)[C@@H](O)[C@H](O)[C@H]2O)cc1Cc1ccc2c(c1)CC2 [Compound 21, (2S,3R,4R,5S,6R)-2-(3-(bicyclo[4.2.0]octa-1(6),2,4-trien-3-ylmethyl)-4-(dimethylamino)phenyl)-6-(hydroxymethyl)oxane-3,4,8-triol]
3 | – | – | 12 nM | 3 nM | CN(C)c1cc(O)c([C@@H]2O[C@H](CO)[C@@H](O)[C@H](O)[C@H]2O)cc1Cc1ccc2c(c1)CC2 [Compound 22, (2S,3R,4R,5S,6R)-2-(5-((1,2-dihydrocyclobutabenzen-4-yl)methyl)-4-(dimethylamino)-2-hydroxyphenyl)-6-(hydroxymethyl)-tetrahydro-2H-pyran-3,4,5-triol]
4 | 24% | 39% | – | – | COc1cc(N(C)C)c(Cc2ccc3c(c2)CC3)cc1[C@@H]1O[C@H](CO)[C@@H](O)[C@H](O)[C@H]1O [Compound 23, (2S,3R,4R,5S,6R)-2-(5-((1,2-dihydrocyclobutabenzen-4-yl)methyl)-4-(dimethylamino)-2-methoxyphenyl)-6-(hydroxymethyl)-tetrahydro-2H-pyran-3,4,5-triol]
5 | 5% | 23% | – | – | OC[C@H]1O[C@@H](c2cccc(Cc3ccc4c(c3)CC4)c2)[C@H](O)[C@@H](O)[C@@H]1O [Compound 24, (2S,3R,4R,5S,6R)-2-(3-((1,2-dihydrocyclobutabenzen-4-yl)methyl)phenyl)-6-(hydroxymethyl)-tetrahydro-2H-pyran-3,4,5-triol]
6 | 36% | 71% | – | – | OC[C@H]1O[C@@H](c2cc(Cc3ccc4c(c3)CC4)ccc2O)[C@H](O)[C@@H](O)[C@@H]1O [Compound 25, (2S,3R,4R,5S,6R)-2-(5-{bicyclo[4.2.0]octa-1(6),2,4-trien-3-ylmethyl}-2-hydroxyphenyl)-6-(hydroxymethyl)oxane-3,4,5-triol]
7 | 5% | 58% | – | – | COc1ccc(Cc2ccc3c(c2)CC3)cc1[C@@H]1O[C@H](CO)[C@@H](O)[C@H](O)[C@H]1O [Compound 26, (2S,3R,4R,5S,6R)-2-(5-(bicyclo[4.2.0]octa-1(6),2,4-trien-3-ylmethyl)-2-methoxyphenyl)-6-(hydroxymethyl)oxane-3,4,5-triol]
8 | – | – | 29 nM | 1 nM | Cc1cc(Cc2ccc3c(c2)CC3)cc([C@@H]2O[C@H](CO)[C@@H](O)[C@H](O)[C@H]2O)c1O [Compound 27, (2S,3R,4R,5S,6R)-2-(5-((1,2-dihydrocyclobutabenzen-4-yl)methyl)-2-hydroxy-3-methylphenyl)-6-(hydroxymethyl)-tetrahydro-2H-pyran-3,4,5-triol]
9 | 50% | 40% | – | – | Cc1c(Cc2ccc3c(c2)CC3)ccc(O)c1[C@@H]1O[C@H](CO)[C@@H](O)[C@H](O)[C@H]1O [Compound 28, (2S,3R,4R,5S,6R)-2-(3-((1,2-dihydrocyclobutabenzen-4-yl)methyl)-6-hydroxy-2-methylphenyl)-6-(hydroxymethyl)-tetrahydro-2H-pyran-3,4,5-triol]
10 | – | – | 92 nM | 3 nM | Cc1cc(F)c([C@@H]2O[C@H](CO)[C@@H](O)[C@H](O)[C@H]2O)cc1Cc1ccc2c(c1)CC2 [Compound 29, (2S,3R,4R,5S,6R)-2-(5-[bicyclo[4.2.0]octa-1,3,5-trien-3-ylmethyl]-2-fluoro-4-methylphenyl)-6-(hydroxymethyl)oxane-3,4,5-triol]
11 | – | – | 206 nM | 3 nM | OC[C@H]1O[C@@H](c2cc(Cc3ccc4c(c3)CC4)c(Cl)cc2F)[C@H](O)[C@@H](O)[C@@H]1O [Compound 30, (2S,3R,4R,5S,6R)-2-(4-chloro-5-((1,2-dihydrocyclobutabenzen-4-yl)methyl)-2-fluorophenyl)-6-(hydroxymethyl)-tetrahydro-2H-pyran-3,4,5-triol]
12 | – | – | 84 nM | 10 nM | COc1cc(F)c([C@@H]2O[C@H](CO)[C@@H](O)[C@H](O)[C@H]2O)cc1Cc1ccc2c(c1)CC2 [Compound 31, (2S,3R,4R,5S,6R)-2-(5-((1,2-dihydrocyclobutabenzen-4-yl)methyl)-2-fluoro-4-methoxyphenyl)-6-(hydroxymethyl)-tetrahydro-2H-pyran-3,4,5-triol]
13 | – | – | 10 nM | 3 nM | CCc1cc(F)c([C@@H]2O[C@H](CO)[C@@H](O)[C@H](O)[C@H]2O)cc1Cc1ccc2c(c1)CC2 [Compound 32, (2S,3R,4R,5S,6R)-2-(5-((1,2-dihydrocyclobutabenzen-4-yl)methyl)-4-ethyl-2-fluorophenyl)-6-(hydroxymethyl)-tetrahydro-2H-pyran-3,4,5-triol]
14 | 23% | 57% | – | – | Cc1cc(OC(F)(F)F)c([C@@H]2O[C@H](CO)[C@@H](O)[C@H](O)[C@H]2O)cc1Cc1ccc2c(c1)CC2 [Compound 33, (2S,3R,4R,5S,6R)-2-(5-((1,2-dihydrocyclobutabenzen-4-yl)methyl)-4-methyl-2-(trifluoromethoxy)phenyl)-6-(hydroxymethyl)-tetrahydro-2H-pyran-3,4,5-triol]
15 | 24% | 72% | – | – | COc1cc(OC(F)(F)F)c([C@@H]2O[C@H](CO)[C@@H](O)[C@H](O)[C@H]2O)cc1Cc1ccc2c(c1)CC2 [Compound 34, (2S,3R,4R,5S,6R)-2-(5-((1,2-dihydrocyclobutabenzen-4-yl)methyl)-4-methoxy-2-(trifluoromethoxy)phenyl)-6-(hydroxymethyl)-tetrahydro-2H-pyran-3,4,5-triol]
16 | 29% | 45% | – | – | CCc1cc(OC(F)(F)F)c([C@@H]2O[C@H](CO)[C@@H](O)[C@H](O)[C@H]2O)cc1Cc1ccc2c(c1)CC2 [Compound 35, (2S,3R,4R,5S,6R)-2-(5-((1,2-dihydrocyclobutabenzen-4-yl)methyl)-4-ethyl-2-(trifluoromethoxy)phenyl)-6-(hydroxymethyl)-tetrahydro-2H-pyran-3,4,5-triol]
17 | 26% | 84% | – | – | Cc1cc(OC(F)F)c([C@@H]2O[C@H](CO)[C@@H](O)[C@H](O)[C@H]2O)cc1Cc1ccc2c(c1)CC2 [Compound 36, 2S,3R,4R,5S,6R)-2-(5-([bicyclo[4.2.0]octa-1(6),2,4-trien-3-ylmethyl]-2-(difluoromethoxy)-4-methylphenyl)-6-(hydroxymethyl)oxane-3,4,5-triol]
